# From PubChem BioAssay AID1963981 (Molecular Pharmacology Branch, DTP, NCI, 2024)
# “And” between values parts separate entries of the source, which are not always exact repeats. Identical values can stand only once.
# Test system: 354836-022-R-J1-PDC multicell spheroid viability
# Test: Anticancer human tumor 354836-022-R-J1-PDC patient-derived head and neck squamous cell carcinoma cell line growth inhibition [PI3K]
# Details: for viability, T/C: stronger effect = lower value
# How it was run: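 Targeted small molecules plus PI3K inhibitors, half-log dose series from Cmax (default top 10 microM), were applied to heterotypic spheroids of cancer cells with HUVEC and MSCs. Viability indicated growth inhibition.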
# [1] = curve of first compound, second compound 0.00316 µM
# [2] = curve of first compound, second compound 0.01 µM
# [3] = curve of first compound, second compound 0.0316 µM
# [4] = curve of first compound, second compound 0.1 µM
# [5] = curve of first compound, second compound 0.316 µM
# [6] = curve of first compound, second compound 1 µM
# [7] = second compound 0.00316 µM, first compound 0.0316 µM
# [8] = second compound 0.00316 µM, first compound 0.1 µM
# [9] = second compound 0.01 µM, first compound 0.0316 µM
# [10] = second compound 0.01 µM, first compound 0.1 µM
# [11] = second compound 0.0316 µM, first compound 0.0316 µM
# [12] = second compound 0.0316 µM, first compound 0.1 µM
# [13] = second compound 0.1 µM, first compound 0.0316 µM
# [14] = second compound 0.1 µM, first compound 0.1 µM
# [15] = second compound 0.316 µM, first compound 0.0316 µM
# [16] = second compound 0.316 µM, first compound 0.1 µM
# [17] = second compound 1 µM, first compound 0.0316 µM
# [18] = second compound 1 µM, first compound 0.1 µM
# 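Note: spheroids exposed to agents for seven days before the viability read.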
structure (smiles),measurement,setting,value
Cn1ncc(Cl)c1-c1cc(C(=O)NC(CN)Cc2cccc(F)c2)sc1Cl (stereo not given) + CC(Nc1ccc2c(c1)OCCn1cc(N3C(=O)OCC3C(F)F)nc1-2)C(N)=O,IC50,[1],0.0852 µM
same,IC50,[2],0.0924 µM
same,IC50,[3],0.105 µM
same,IC50,[4],0.129 µM
same,IC50,[5],0.0929 µM
same,IC50,[6],0.0372 µM
same,"viability, T/C",[7],64.3%
same,"viability, T/C",[8],48.1%
same,"viability, T/C","second compound 0.00316 µM, first compound 0.316 µM",33.3%
same,"viability, T/C","second compound 0.00316 µM, first compound 1 µM",20.1%
same,"viability, T/C","second compound 0.00316 µM, first compound 3.16 µM",19.9%
same,"viability, T/C","second compound 0.00316 µM, first compound 10 µM",5.31%
same,"viability, T/C",[9],75.2%
same,"viability, T/C",[10],47.5%
same,"viability, T/C","second compound 0.01 µM, first compound 0.316 µM",30.2%
same,"viability, T/C","second compound 0.01 µM, first compound 1 µM",18.9%
same,"viability, T/C","second compound 0.01 µM, first compound 3.16 µM",18.3%
same,"viability, T/C","second compound 0.01 µM, first compound 10 µM",5.41%
same,"viability, T/C",[11],66.6%
same,"viability, T/C",[12],56.4%
same,"viability, T/C","second compound 0.0316 µM, first compound 0.316 µM",27.3%
same,"viability, T/C","second compound 0.0316 µM, first compound 1 µM",23.9%
same,"viability, T/C","second compound 0.0316 µM, first compound 3.16 µM",16.9%
same,"viability, T/C","second compound 0.0316 µM, first compound 10 µM",3.21%
same,"viability, T/C",[13],83.1%
same,"viability, T/C",[14],56%
same,"viability, T/C","second compound 0.1 µM, first compound 0.316 µM",29.9%
same,"viability, T/C","second compound 0.1 µM, first compound 1 µM",24.2%
same,"viability, T/C","second compound 0.1 µM, first compound 3.16 µM",15.9%
same,"viability, T/C","second compound 0.1 µM, first compound 10 µM",4.25%
same,"viability, T/C",[15],71%
same,"viability, T/C",[16],48.8%
same,"viability, T/C","second compound 0.316 µM, first compound 0.316 µM",30.7%
same,"viability, T/C","second compound 0.316 µM, first compound 1 µM",20.5%
same,"viability, T/C","second compound 0.316 µM, first compound 3.16 µM",12.9%
same,"viability, T/C","second compound 0.316 µM, first compound 10 µM",5.46%
same,"viability, T/C",[17],50.6%
same,"viability, T/C",[18],45.2%
same,"viability, T/C","second compound 1 µM, first compound 0.316 µM",32.2%
same,"viability, T/C","second compound 1 µM, first compound 1 µM",25%
same,"viability, T/C","second compound 1 µM, first compound 3.16 µM",13%
same,"viability, T/C","second compound 1 µM, first compound 10 µM",4.09%
CCN1CCN(Cc2ccc(Nc3ncc(F)c(-c4cc(F)c5nc(C)n(C(C)C)c5c4)n3)nc2)CC1,"viability, T/C",compound 0.00316 µM,111% [middle of 4 runs]
same,"viability, T/C",compound 0.01 µM,94.4% [middle of 4 runs]
same,"viability, T/C",compound 0.0316 µM,98.2% [middle of 4 runs]
same,"viability, T/C",compound 0.1 µM,90% and 99.5% and 87.3% (2×)
same,"viability, T/C",compound 0.316 µM,94% [middle of 4 runs]
same,IC50,curve of compound,> 1 µM and 0.83 µM
CC(C)n1nc(-c2ccc3oc(N)nc3c2)c2c(N)ncnc21 + COc1c(OCCCN2CCOCC2)ccc2c3n(c(=NC(=O)c4cnc(N)nc4)nc12)CCN3,IC50,[1],0.0114 µM
same,IC50,[2],0.0107 µM
same,IC50,[3],0.00909 µM
same,IC50,[4],< 0.000316 µM
same,IC50,[5],< 0.000316 µM
same,IC50,[6],< 0.000316 µM
same,"viability, T/C","second compound 0.00316 µM, first compound 0.000316 µM",103%
same,"viability, T/C","second compound 0.00316 µM, first compound 0.001 µM",70.8%
same,"viability, T/C","second compound 0.00316 µM, first compound 0.00316 µM",77.9%
same,"viability, T/C","second compound 0.00316 µM, first compound 0.01 µM",50.9%
same,"viability, T/C",[7],33%
same,"viability, T/C",[8],3.49%
same,"viability, T/C","second compound 0.01 µM, first compound 0.000316 µM",93.3%
same,"viability, T/C","second compound 0.01 µM, first compound 0.001 µM",86.8%
same,"viability, T/C","second compound 0.01 µM, first compound 0.00316 µM",67.7%
same,"viability, T/C","second compound 0.01 µM, first compound 0.01 µM",52.3%
same,"viability, T/C",[9],28.3%
same,"viability, T/C",[10],3.55%
same,"viability, T/C","second compound 0.0316 µM, first compound 0.000316 µM",67%
same,"viability, T/C","second compound 0.0316 µM, first compound 0.001 µM",70.8%
same,"viability, T/C","second compound 0.0316 µM, first compound 0.00316 µM",61.7%
same,"viability, T/C","second compound 0.0316 µM, first compound 0.01 µM",49%
same,"viability, T/C",[11],23.5%
same,"viability, T/C",[12],2.77%
same,"viability, T/C","second compound 0.1 µM, first compound 0.000316 µM",49%
same,"viability, T/C","second compound 0.1 µM, first compound 0.001 µM",48.2%
same,"viability, T/C","second compound 0.1 µM, first compound 0.00316 µM",36.4%
same,"viability, T/C","second compound 0.1 µM, first compound 0.01 µM",27.4%
same,"viability, T/C",[13],11.9%
same,"viability, T/C",[14],2.07%
same,"viability, T/C","second compound 0.316 µM, first compound 0.000316 µM",16.2%
same,"viability, T/C","second compound 0.316 µM, first compound 0.001 µM",9.69%
same,"viability, T/C","second compound 0.316 µM, first compound 0.00316 µM",8.47%
same,"viability, T/C","second compound 0.316 µM, first compound 0.01 µM",10.1%
same,"viability, T/C",[15],3.38%
same,"viability, T/C",[16],0.76%
same,"viability, T/C","second compound 1 µM, first compound 0.000316 µM",1.52%
same,"viability, T/C","second compound 1 µM, first compound 0.001 µM",1.5%
same,"viability, T/C","second compound 1 µM, first compound 0.00316 µM",1.64%
same,"viability, T/C","second compound 1 µM, first compound 0.01 µM",1.22%
same,"viability, T/C",[17],0.82%
same,"viability, T/C",[18],0.62%
